The results in this text go back to BindingDB's records for doi:10.1016/0968-0896(96)00130-7 (Sankyo, 1996).

The structures appear in SMILES notation.

In the assay the target is T1, Dimer of Gag-Pol polyprotein [489-587] (Human immunodeficiency virus 1, UniProt P12497).
T1 construct: 489-587
Kind of assay: Protease Inhibition Assay. The conditions noted are these: pH 4.7; 37 °C. As for the experimental part:
The inhibitory activities of the compounds toward HIV-1 PR were determined by sodium dodecyl sulfate-polyacrylamide gel electrophoresis (SDS-PAGE) assay. The Ki values of active compounds were determined using the partially purified protease and the synthetic substrate Ac-Ser-Gln-AsnTyr-Pro-Ile-Val-NH2.
`CC(C)(C)NC(=O)[C@@H]1C[C@@H](O)CN1C(=O)[C@@H](O)[C@H](Cc1ccccc1)NC(=O)[C@H](CC(N)=O)NC(=O)OCc1ccccc1` [benzyl N-[(1S)-1-{[(2S,3S)-4-[(2S,4R)-2-(tert-butylcarbamoyl)-4-hydroxypyrrolidin-1-yl]-3-hydroxy-4-oxo-1-phenylbutan-2-yl]carbamoyl}-2-carbamoylethyl]carbamate]: the inhibition constant Ki (usually the dissociation constant of the complex between target and ligand, obtained from inhibition or displacement) turned out to be 56 nM. In the case of `COc1ccc2[nH]c(C(=O)N[C@@H](CC(N)=O)C(=O)N[C@@H](Cc3ccccc3)[C@H](O)C(=O)N3C[C@@H](Cl)C[C@H]3C(=O)NC(C)(C)C)cc2c1` [(2S)-N-[(2S,3S)-4-[(2S,4S)-2-(tert-butylcarbamoyl)-4-chloropyrrolidin-1-yl]-3-hydroxy-4-oxo-1-phenylbutan-2-yl]-2-[(5-methoxy-1H-indol-2-yl)formamido]butanediamide], the affinity corresponds to a Ki of 21.5 nM. In turn, `CC(C)(C)NC(=O)[C@@H]1CC(Cl)CN1C(=O)[C@@H](O)[C@H](Cc1ccccc1)NC(=O)[C@H](CC(N)=O)NC(=O)OCc1ccccc1` (stereo partly drawn) [benzyl N-[(1S)-1-{[(2S,3S)-4-[(2S)-2-(tert-butylcarbamoyl)-4-chloropyrrolidin-1-yl]-3-hydroxy-4-oxo-1-phenylbutan-2-yl]carbamoyl}-2-carbamoylethyl]carbamate] returned a Ki of 8 nM. Next, `CC(C)(C)NC(=O)[C@@H]1CC(Br)CN1C(=O)[C@@H](O)[C@H](Cc1ccccc1)NC(=O)[C@H](CC(N)=O)NC(=O)OCc1ccccc1` (stereo partly drawn) [Z-Asn-(2S,3S)-AHPBA.[4(S)-bromo]Pro tert-butylamide]: 22.5 nM. With `COC1(OC)C[C@@H](C(=O)NC(C)(C)C)N(C(=O)[C@@H](O)[C@H](Cc2ccccc2)NC(=O)[C@H](CC(N)=O)NC(=O)OCc2ccccc2)C1` [benzyl N-[(1S)-1-{[(2S,3S)-4-[(2S)-2-(tert-butylcarbamoyl)-4,4-dimethoxypyrrolidin-1-yl]-3-hydroxy-4-oxo-1-phenylbutan-2-yl]carbamoyl}-2-carbamoylethyl]carbamate] the figure was 92 nM. With `Cn1nc(C(=O)N[C@@H](CC(N)=O)C(=O)N[C@@H](Cc2ccccc2)[C@H](O)C(=O)N2C[C@@H](Cl)C[C@H]2C(=O)NC(C)(C)C)c2ccccc21` [(2S)-N-[(2S,3S)-4-[(2S,4S)-2-(tert-butylcarbamoyl)-4-chloropyrrolidin-1-yl]-3-hydroxy-4-oxo-1-phenylbutan-2-yl]-2-[(1-methyl-1H-indazol-3-yl)formamido]butanediamide] the figure was 16 nM. In turn, `CC(C)(C)NC(=O)[C@@H]1C(O)CCN1C(=O)[C@@H](O)[C@H](Cc1ccccc1)NC(=O)[C@H](CC(N)=O)NC(=O)OCc1ccccc1` (stereo partly drawn) [benzyl N-[(1S)-1-{[(2S,3S)-4-[(2S)-2-(tert-butylcarbamoyl)-3-hydroxypyrrolidin-1-yl]-3-hydroxy-4-oxo-1-phenylbutan-2-yl]carbamoyl}-2-carbamoylethyl]carbamate] displayed a Ki of 0.1 nM. The compound `Cn1cc(C(=O)N[C@@H](CC(N)=O)C(=O)N[C@@H](Cc2ccccc2)[C@H](O)C(=O)N2C[C@@H](Cl)C[C@H]2C(=O)NC(C)(C)C)c2ccccc21` [(1-Methylindole-3-carbonyl)- Asn - (2S,3S)-AHPBA-[4(S)-chloro]Pro tert-butylamide] displayed a Ki of 20 nM.

With `CC(C)(C)NC(=O)[C@@H]1C[C@H](Cl)CN1C(=O)[C@@H](O)[C@H](Cc1ccccc1)NC(=O)[C@H](CC(N)=O)NC(=O)c1noc2ccccc12` [(2S)-2-(1,2-benzoxazol-3-ylformamido)-N-[(2S,3S)-4-[(2S,4S)-2-(tert-butylcarbamoyl)-4-chloropyrrolidin-1-yl]-3-hydroxy-4-oxo-1-phenylbutan-2-yl]butanediamide], the Ki stood at 28 nM.

`COc1cccc2cc(C(=O)N[C@@H](CC(N)=O)C(=O)N[C@@H](Cc3ccccc3)[C@H](O)C(=O)N3C[C@@H](Cl)C[C@H]3C(=O)NC(C)(C)C)oc12` [(2S)-N-[(2S,3S)-4-[(2S,4S)-2-(tert-butylcarbamoyl)-4-chloropyrrolidin-1-yl]-3-hydroxy-4-oxo-1-phenylbutan-2-yl]-2-[(7-methoxy-1-benzofuran-2-yl)formamido]butanediamide] had a Ki of 4.5 nM.

`CC(C)(C)NC(=O)[C@@H]1C[C@H](Cl)CN1C(=O)[C@@H](O)[C@H](Cc1ccccc1)NC(=O)[C@H](CC(N)=O)NC(=O)c1cnc2ccccc2n1` [(Quinoxaline-2-carbonyl)-Asn-(2S,3S)-AHPBA-[4(S)-chloro]Pro tert-butylamide] displayed a Ki of 4.7 nM. `CC(C)(C)NC(=O)[C@@H]1CC(F)CN1C(=O)[C@@H](O)[C@H](Cc1ccccc1)NC(=O)[C@H](CC(N)=O)NC(=O)OCc1ccccc1` (stereo partly drawn) [Z-Asn-(2S,3S)-AHPBA-[4(S)-fluoro] Pro tert-butylamide] had an inhibition constant Ki of 18 nM. Next, `CC(C)(C)NC(=O)[C@@H]1CC(F)(F)CN1C(=O)[C@@H](O)[C@H](Cc1ccccc1)NC(=O)[C@H](CC(N)=O)NC(=O)OCc1ccccc1` [benzyl N-[(1S)-1-{[(2S,3S)-4-[(2S)-2-(tert-butylcarbamoyl)-4,4-difluoropyrrolidin-1-yl]-3-hydroxy-4-oxo-1-phenylbutan-2-yl]carbamoyl}-2-carbamoylethyl]carbamate]: 35 nM. Consider `CC(C)(C)NC(=O)[C@@H]1C[C@H](Cl)CN1C(=O)[C@@H](O)[C@H](Cc1ccccc1)NC(=O)[C@H](CC(N)=O)NC(=O)c1cc2cc(F)ccc2[nH]1` [(2S)-N-[(2S,3S)-4-[(2S,4S)-2-(tert-butylcarbamoyl)-4-chloropyrrolidin-1-yl]-3-hydroxy-4-oxo-1-phenylbutan-2-yl]-2-[(5-fluoro-1H-indol-2-yl)formamido]butanediamide], for which the inhibition constant Ki was 12.5 nM. Turning to `CC(C)(C)NC(=O)[C@@H]1[C@@H](Cl)CCN1C(=O)[C@@H](O)[C@H](Cc1ccccc1)NC(=O)[C@H](CC(N)=O)NC(=O)OCc1ccccc1` [Z-Asn.(2S,3S)-AHPBA.[3(S)-chloro]Pro tert-butylamide], the Ki came out at 14.5 nM. In turn, `CC(C)(C)NC(=O)[C@@H]1[C@@H](O)CCN1C(=O)[C@@H](O)[C@H](Cc1ccccc1)NC(=O)[C@H](CC(N)=O)NC(=O)OCc1ccccc1` [Z.Asn-(2S,3S).AHPBA.[3(S)-hydroxy]Pro tert-butyl-amide] showed a Ki of 32 nM. On to `CC(C)(C)NC(=O)[C@@H]1CC(=O)CN1C(=O)[C@@H](O)[C@H](Cc1ccccc1)NC(=O)[C@H](CC(N)=O)NC(=O)OCc1ccccc1` [Z-Asn.(2S,3S)-AHPBA.(4.oxo)Pro tert-butylamide], for which the affinity corresponds to a Ki of 12.5 nM.

The compound `CC(C)(C)NC(=O)[C@@H]1CC(N2CCOCC2)CN1C(=O)[C@@H](O)[C@H](Cc1ccccc1)NC(=O)[C@H](CC(N)=O)NC(=O)OCc1ccccc1` (stereo partly drawn) [benzyl N-[(1S)-1-{[(2S,3S)-4-[(2S)-2-(tert-butylcarbamoyl)-4-(morpholin-4-yl)pyrrolidin-1-yl]-3-hydroxy-4-oxo-1-phenylbutan-2-yl]carbamoyl}-2-carbamoylethyl]carbamate] came in with a Ki of 1 nM. Next, `CC(C)(C)NC(=O)[C@@H]1CCCN1C(=O)[C@@H](O)[C@H](Cc1ccccc1)NC(=O)[C@H](CC(N)=O)NC(=O)OCc1ccccc1` [benzyl N-[(1S)-1-{[(2S,3S)-4-[(2S)-2-(tert-butylcarbamoyl)pyrrolidin-1-yl]-3-hydroxy-4-oxo-1-phenylbutan-2-yl]carbamoyl}-2-carbamoylethyl]carbamate]: 57.5 nM; `CC(C)(C)NC(=O)[C@@H]1CC(O)CN1C(=O)[C@@H](O)[C@H](Cc1ccccc1)NC(=O)[C@H](CC(N)=O)NC(=O)OCc1ccccc1` (stereo partly drawn) [Z.Asn-(2S,3S)-AHPBA-[4(S)-hydroxy]Pro tert-butylamide]: 1 nM. With `CC(C)(C)NC(=O)[C@@H]1CC(Sc2ccccc2)CN1C(=O)[C@@H](O)[C@H](Cc1ccccc1)NC(=O)[C@H](CC(N)=O)NC(=O)OCc1ccccc1` (stereo partly drawn) [Z.Asn-(2S,3S)-AHPBA-[4(S)-phenylthio]Pro tert-butylamide], the inhibitory constant (Ki) worked out at 125 nM.

`CC(C)(C)NC(=O)[C@@H]1C[C@@H](Cl)CN1C(=O)[C@@H](O)[C@H](Cc1ccccc1)NC(=O)[C@H](CC(N)=O)NC(=O)OCc1ccccc1` [Z-Asn-(2S,3S).AHPBA. [4(R ).chloro] Pro tert-butylamide] registered a Ki of 90 nM.
